The values that follow come from patent US8673968B2, “Progesterone antagonists” (Evestra, Inc., priority 2009, dated 2014).

Structures are written as SMILES. A value given as a limit tells only on which side of the number the result lay.

For experiment [1], the target named is T1, progesterone receptor-LBD (Homo sapiens, UniProt P06401).
T1 construct: host or cells: HEK 293T (progesterone receptor-LBD-UAS-bla)
T1 sequence (P06401 679-913 limits assumed): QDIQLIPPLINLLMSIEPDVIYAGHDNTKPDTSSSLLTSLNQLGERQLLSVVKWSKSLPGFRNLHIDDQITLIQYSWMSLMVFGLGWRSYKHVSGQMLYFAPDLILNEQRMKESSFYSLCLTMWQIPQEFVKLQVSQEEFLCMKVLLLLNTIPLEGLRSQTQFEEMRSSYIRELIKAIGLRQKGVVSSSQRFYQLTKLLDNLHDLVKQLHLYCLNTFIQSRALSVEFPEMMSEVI
Briefly: Progesterone Antagonist Screen, activated by control agonist R5020 (GENEBLAZER beta-lactamase reporter). It is filed as cell-based. The note with it: progesterone receptor-LBD-UAS-bla HEK 293T cells; control agonist R5020 at EC80; read-out: Progesterone Antagonist Inhibition IC50. The method, then:
(§1) Determination of the agonist/antagonist nature of the test compounds was carried out using Invitrogen's SELECTSCREEN, a cell-based nuclear receptor profiling service which uses GENEBLAZER a beta-lactamase reporter technology. This assay uses a Beta-lactamase cDNA under transcriptional control of an Upstream Activator Sequence (UAS). The UAS is activated by the GAL4 transcription factor DNA binding domain (DBD), which is expressed as a fusion protein with the target receptor ligand binding domain (LBD). Upon ligand binding, the GAL4(DBD)-NR(LDB) binds to the UAS, which controls transcription of Beta-lactamase. Beta-lactamase cleaves a special engineered fluorescent substrate which results in a change in the measured fluorescence wavelength.
The generalized protocol used for the Progesterone Antagonist Screen, activated by control Agonist R5020 is as follows:
32 μL of cell suspension is added to the wells which is then pre-incubated at 37 C/5% CO2 in a humidified incubator with test compounds and control antagonist titration for 30 minutes. 4 μL of a 10× control agonist (see above) at the predetermined EC80 concentration is added to wells containing the control antagonist or test compounds. The plate is incubated for 16-24 hours at 37 C/5% CO2 in a humidified incubator. 8 μl of 1 μM Substrate Loading Solution is added to each well and the plate is incubated for 2 hours at room temperature. The plate is then read on a fluorescence plate reader (Tecan Safire).

Experiment [2] concerns the target T1, progesterone receptor-LBD. Briefly: Progesterone Agonist screen (SELECTSCREEN GENEBLAZER beta-lactamase reporter). It is filed as cell-based. The note with it: progesterone receptor-LBD-UAS-bla HEK 293T cells; read-out: Progesterone Agonist Activation IC50. The method, then:
as §1
The plate is incubated for 16-24 hours at 37° C./5% CO2 in a humidified incubator. […] The plate is then read on a fluorescence plate reader (Tecan Safire).

Experiment [3] deals with T2, glucocorticoid receptor-LBD (Homo sapiens, UniProt P04150).
T2 construct: host or cells: HEK 293T (glucocorticoid receptor-LBD-UAS-bla)
T2 sequence (P04150 524-758 limits assumed): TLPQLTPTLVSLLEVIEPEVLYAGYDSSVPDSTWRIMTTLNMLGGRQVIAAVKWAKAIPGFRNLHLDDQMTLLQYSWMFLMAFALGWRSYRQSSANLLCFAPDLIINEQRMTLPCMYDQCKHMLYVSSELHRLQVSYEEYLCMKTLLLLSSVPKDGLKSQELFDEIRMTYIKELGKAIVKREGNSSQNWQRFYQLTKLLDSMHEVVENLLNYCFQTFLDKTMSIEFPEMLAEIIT
Briefly: Glucocorticoid Antagonist Screen activated by control agonist Dexamethasone (GENEBLAZER beta-lactamase reporter). It is filed as cell-based. The note with it: glucocorticoid receptor-LBD-UAS-bla HEK 293T cells, read-out: Glucocorticoid Antagonist Inhibition IC50. The method, then: as §1

The subject of experiment [4] is progesterone receptor positive breast cancer. The note with it: rat model, recent study; cited from earlier work.

Turning to `C=C(C)c1ccc(C2CC3(C)C(CCC34OCCC4=C(F)F)C3CCC4=CC(=O)CCC4=C23)cc1` (stereo not drawn) [Compound 1d, 21,21-difluoro-11β-(4′-isopropenylphenyl)-17,23-epoxy-19,24-dinor-17α-chola-4,9,20-triene], the IC50 (in general, the concentration that inhibits the measured activity by half) in experiment [1] is 0.413 nM.
As for `CC(=O)c1ccc([C@H]2C[C@@]3(C)[C@@H](CC[C@@]3(O)C(F)(F)C(F)(F)F)[C@@H]3CCC4=CC(=O)CCC4=C32)cc1` [ZK 230211, Lonaprisan, reference compound], the figures for the IC50 in experiment [2], in experiment [1] and in experiment [3] were > 10 nM, 0.798 nM and > 10 nM, respectively.
On to `COCC(=O)[C@@]1(OC(C)=O)CC[C@H]2[C@@H]3CCC4=CC(=O)CCC4=C3[C@@H](c3ccc(N(C)C)cc3)C[C@@]21C` [PROELLEX], for which, in experiment [4], the “development of new tumors” value is “decrease in the development of new tumors” and the tumor size result is “regression of tumor size”.
In the case of `CC12CC(c3ccc(-c4ccoc4)cc3)C3=C4CCC(=O)C=C4CCC3C1CCC21OCCC1=C(F)F` (stereo not shown) [Compound 1f], the concentration for half-maximal inhibition (IC50) in experiment [1] was 0.864 nM.
`CN(C)c1ccc(C2CC3(C)C(CCC34OCCC4=C(F)F)C3CCC4=CC(=O)CCC4=C23)cc1` (stereo not drawn) [Compound 1b, 21,21-difluoro-11β-[4′-(dimethylamino)phenyl]-17,23-epoxy-19,24-dinor-17α-chola-4,9,20-triene]: in experiment [1], the IC50 amounted to 0.178 nM.
For `COc1ccc(C2CC3(C)C(CCC34OCCC4=C(F)F)C3CCC4=CC(=O)CCC4=C23)cc1` (stereo not drawn) [Compound 1c, 21,21-difluoro-11β-(4′-methoxyphenyl)-17,23-epoxy-19,24-dinor-17α-chola-4,9,20-triene], the IC50 in experiment [1] is 0.344 nM.
For `CC12CC(c3ccc(-c4cccnc4)cc3)C3=C4CCC(=O)C=C4CCC3C1CCC21OCCC1=C(F)F` (stereo not drawn) [Compound 1e, 21,21-difluoro-11β-[4′-(3′-pyridyl)phenyl]-17,23-epoxy-19,24-dinor-17α-chola-4,9,20-triene], the IC50 in experiment [1] came to 0.28 nM.
Turning to `CC(=O)c1ccc(C2CC3(C)C(CCC34OCCC4=C(F)F)C3CCC4=CC(=O)CCC4=C23)cc1` (stereo not drawn) [Compound 1a, 21,21-difluoro-11β-(4′-acetyl)phenyl-17,23-epoxy-19,24-dinor-17α-chola-4,9,20-triene], the values for the IC50 in experiment [2], in experiment [1] and in experiment [3] were > 10 nM, 0.265 nM and > 10 nM, respectively.
